Reference: US20220176084A1, “MEDICAL DEVICE WITH DRUG-ELUTING COATING ON MODIFIED DEVICE SURFACE” (Bard Peripheral Vascular, Inc., priority 2019, published 2022)

What was measured:
[1] = octanol/water; cited from earlier work
[2] = stability under ethylene oxide sterilization, heating and aging; reaction with paclitaxel; settings: for reaction with paclitaxel: ethylene oxide sterilization, heating, aging
[3] = drug absorption by tissue after brief balloon deployment; type: in vivo; settings: formulated with paclitaxel; 0.2-2 minutes of deployment
Description: Some of the surfactants described herein are very stable under heating. They survive an ethylene oxide sterilization process.
When the chemical compounds described herein are formulated with paclitaxel, a top coat layer may be advantageous in order to prevent premature drug loss during the device delivery process before deployment at the target site, since hydrophilic small molecules sometimes release drug too easily. The chemical compounds herein rapidly elute drug off the balloon during deployment at the target site.
Mixtures or combinations of a surfactant and a water-soluble small molecule confer the advantages of both additives. The water insoluble drug often has a poor compatibility with highly water-soluble chemical compounds, and the surfactant improves compatibility. […] The surfactant reduces drug loss during transit to a target site. The water-soluble chemical compound improves the release of drug off the balloon and absorption of the drug in the tissue.

[4] = cited from earlier work
protein = settings: cited from earlier work
albumin = albumin (Homo sapiens, UniProt P02768); settings: share of protein binding; cited from earlier work
albumin, sequence (P02768 25-609): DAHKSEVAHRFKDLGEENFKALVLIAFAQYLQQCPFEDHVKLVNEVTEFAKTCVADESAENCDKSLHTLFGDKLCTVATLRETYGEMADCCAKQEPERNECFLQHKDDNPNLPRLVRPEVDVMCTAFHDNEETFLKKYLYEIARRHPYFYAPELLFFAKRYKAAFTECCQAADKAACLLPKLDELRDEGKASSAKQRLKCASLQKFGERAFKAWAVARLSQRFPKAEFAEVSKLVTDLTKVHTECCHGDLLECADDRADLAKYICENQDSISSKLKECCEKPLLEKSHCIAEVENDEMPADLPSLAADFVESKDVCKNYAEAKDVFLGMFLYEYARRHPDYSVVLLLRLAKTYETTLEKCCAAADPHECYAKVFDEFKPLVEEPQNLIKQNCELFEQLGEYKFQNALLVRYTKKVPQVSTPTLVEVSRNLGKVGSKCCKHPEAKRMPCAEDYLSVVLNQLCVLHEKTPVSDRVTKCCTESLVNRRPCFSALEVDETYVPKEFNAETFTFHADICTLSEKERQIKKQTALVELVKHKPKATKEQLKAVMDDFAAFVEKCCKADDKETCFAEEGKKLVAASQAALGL

Compound: COc1ccc(O)c(C(C)(C)C)c1 [Butylated hydroxyanisole (BHA), Butylated hydroxyanisole]
- log P [1]: 1.31

Compound: O=C1O[C@H]([C@@H](O)CO)C(O)=C1O [ascorbic acid]
- reaction with paclitaxel [2]: reacted with paclitaxel

Compound: O=C(O)c1ccccc1 [benzoic acid]
- reaction with paclitaxel [2]: reacted with paclitaxel
- stability under ethylene oxide sterilization, heating, and aging process ([2]; experimentally): not stable

Compound: OCCNCCO [diethanolamine]
- survival of ethylene oxide sterilization process [2]: do not necessarily survive
- reaction with paclitaxel [2]: reacted with paclitaxel

Compound: O=C1O[C@H](CO)[C@@H](O)[C@H](O)[C@H]1O [gluconolactone]
- drug absorption by tissue / drug levels in tissue [3]: unexpectedly high

Compound: O=C(O)/C=C\C(=O)O [maleic acids]
- water and ethanol solubility ([4]; in words): very high

Compound: NC(=O)c1cccnc1 [niacinamide]
- water and ethanol solubility ([4]; in words): very high

Compound: CC(=O)O[C@H]1C(=O)[C@@]2(C)[C@H]([C@H](OC(=O)c3ccccc3)[C@]3(O)C[C@H](OC(=O)[C@H](O)[C@@H](NC(=O)c4ccccc4)c4ccccc4)C(C)=C1C3(C)C)[C@]1(OC(C)=O)CO[C@@H]1C[C@@H]2O [paclitaxel, reference compound]
- increase of solubility in PBS with the addition of BSA ([4]; PBS, BSA added): over 20 fold

Compound: CO[C@H]1C[C@@H]2CC[C@@H](C)[C@@](O)(O2)C(=O)C(=O)N2CCCC[C@H]2C(=O)O[C@H]([C@H](C)C[C@@H]2CC[C@@H](O)[C@H](OC)C2)CC(=O)[C@H](C)/C=C(\C)[C@@H](O)[C@@H](OC)C(=O)[C@H](C)C[C@H](C)/C=C/C=C/C=C/1C [rapamycin]
- protein bound (protein): 92%
- protein bound primarily to albumin (albumin): 97%

Compound: O=C1O[C@H](CO)[C@@H](O)[C@H]1O [ribonic acid lactone]
- drug absorption by tissue / drug levels in tissue [3]: unexpectedly high

Compound: Cc1ncc(C[n+]2csc(CCO)c2C)c(N)n1 [thiamine]
- water and ethanol solubility ([4]; in words): very high

Compound: PEG-20 sorbitan monolaurate [Tween 20]
- log P [1]: about 3.0

Compound: Sudan Red
- solubility in aqueous solvent ([4]; in words): insoluble
